According to patent publication US5859025A, “Fluoroalkyl- and fluoroalkoxy-substituted heterocyclic bradykinin antagonists, process for their preparation, and their use” (Hoechst Aktiengesellschaft, priority 1996, dated 1999):

Experiments:
bradykinin B2 receptor = biological target: T1, bradykinin B2 receptor (Cavia porcellus, UniProt O70526); test: binding to the bradykinin B2 receptor of the guinea-pig ileum (3H-bradykinin competition); conditions: 3H-bradykinin 0.25 to 0.3 nmol/l, guinea-pig ileum membranes; for Ki: LIGAND program; for IC50: room temperature, 60 minutes
T1 construct: The guinea-pig ilea are roughly freed of the intestinal contents by careful stripping; from tissue; host or cells: guinea-pig ileum, membrane preparation
T1 sequence (O70526 1-372): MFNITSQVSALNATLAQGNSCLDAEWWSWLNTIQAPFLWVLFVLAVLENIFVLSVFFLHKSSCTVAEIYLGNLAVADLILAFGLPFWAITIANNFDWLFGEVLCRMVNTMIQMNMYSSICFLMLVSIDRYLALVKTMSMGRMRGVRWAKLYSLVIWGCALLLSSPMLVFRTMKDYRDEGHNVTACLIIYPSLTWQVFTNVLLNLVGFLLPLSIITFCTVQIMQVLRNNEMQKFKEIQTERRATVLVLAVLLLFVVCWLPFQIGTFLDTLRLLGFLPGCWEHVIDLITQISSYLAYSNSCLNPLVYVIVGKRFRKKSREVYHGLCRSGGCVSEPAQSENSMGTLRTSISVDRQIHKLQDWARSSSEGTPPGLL
Experimental: The measurement of the binding to the bradykinin B2 receptor of the guinea-pig ileum is described in the following (R. B. Innis et al., Proc. Natl. Acad. Sci. USA; 17 (1981) 2630): […]
25 mM TES (SIGMA, Order No: T-4152)
1 mM 1,10-phenanthroline (SIGMA; Order No: P-9375)
25 mM TES (SIGMA; Order No.: T-4152)
1 mM 1,10-phenanthroline (SIGMA; Order No.: P-9375)
0,1% albumin, bovine (SIGMA; Order No.: A-7906)
140 mg/ml bacitracin (SIGMA; Order No.: B-0125)
1 mM dithiothreitol (SIGMA; Order No.: D-0632)
1 mM captopril® 1-[(2S)-3-mercapto-2-methylpropionyl]-L-proline
Both buffers are adjusted to pH 6.8 using 5 molar NaOH.
The guinea-pig ilea are roughly freed of the intestinal contents by careful stripping and cleaned in 0.9% strength NaCl solution. The pieces of ilea, which are about 2 cm long, are transferred to ice-cold TES buffer (about 1 g/10 ml) and homogenized in an ice-bath for 30 sec. using an Ultraturrax. The homogenate is then filtered through 3 layers of gauze and the filtrate is centrifuged at 50,000 g for 10 minutes. The supernatant is discarded, and the pellet is rehomogenized in the same volume of TES buffer and centrifuged again at 50,000 g for 10 minutes. The pellet is rehomogenized in incubation buffer (about 1 g/5 ml) and frozen at -70° C. in cryotubes, divided into 2 ml portions.
The protein concentration of the ready-to-use membrane suspension is determined according to LOWRY and should be about 15 mg/100 ml.
All incubations are carried out at room temperature for 60 minutes on microtiter plates (96×300 ml) in 200 ml volumes. All mixtures in incubation buffer. To this end, 50 ml of the radioligand, 50 ml of the preparation to be tested and 100 ml of the membrane suspension are pipetted successively into the depressions of the microtiter plate. […]
a) Saturation Experiments (hot saturation)
Preparation of the ^3 H-bradykinin solution: For the saturation experiments, the concentrations 0.05, 0.1, 0.2, 0.4, 0.6, 0.8, 1.0, 1.5, 2.0, 2.5 and 3.0 nmol/l are employed, which correspond to 0.05 to 3.0 pmol/ml. After the preparation of the corresponding dilutions, 50 ml each per sample are initially introduced.
Nonspecific binding: For each concentration of the radioactive ligand, the nonspecific binding must be determined. This can be achieved by addition of a high concentration (1-100 mmol) of the unlabeled ligand, other antagonists or agonists of the bradykinin receptor. […] For this, 1.862 mg are dissolved in 1 ml of dimethyl sulfoxide (DMSO), diluted 1:25 with incubation buffer and 50 ml of this solution are added to the samples in the microtiter plates. The reaction is started by the addition of […] of the membrane suspension. […]
b) Competition Experiments (IC50)
Here a fixed quantity of the radioactive ligand (0.25 to 0.3 nmol/l of ^3 H-bradykinin) and various concentrations of the unlabeled agonists or antagonists are employed. 50 ml of the preparations or standards to be tested in the concentrations 10^-5 to 10^-10 mol/l are added to in each case 50 ml of the ^3 H-bradykinin solution and the reaction is started by addition of […] of membrane suspension. In this test too, triplicate determinations are carried out and three samples are incubated with […] of HOE 140 to determine the nonspecific binding.
The preparations to be tested for competition are always dissolved at a concentration of 1 mmol/l in dimethyl sulfoxide (DMSO), and then further diluted with DMSO. This solution is then diluted 1:25 with incubation buffer.
After incubation, the samples are filtered off in a Skatron cell harvester through a Whatmann GF/B filter previously moistened with 0.1% PEI (polyethylenimine) and washed with 10 ml of ice-cold TES buffer per sample. The still moist filters are punched out into mini-scintillation tubes and the tubes are filled with 3 ml of scintillator. After about 12 hours soaking time, the samples are briefly shaken and measured in a beta counter. […]

[1] = tested on: bradykinin-induced contraction of the guinea-pig ileum; test: antagonist action on the bradykinin-induced contraction of the guinea-pig ileum; format: cell-based; conditions: Cavia porcellus, 10 min; isolated guinea-pig ileum, bradykinin 4×10^-8 mol/l, time of action 10 min, 37° C.
Experimental: The determinations of the antagonist action on the bradykinin-induced contraction of the guinea-pig ileum were carried out according to the following protocol:
Guinea-pigs weighing about 300 g (Morioth strain,--) are killed by a blow to the neck and exsanguinated. The ileum is dissected out in a length of about 20 cm, rinsed with Tyrode solution (Record syringe) and thus freed of intestinal contents. It is then divided into sections 1.5 cm long. These are fixed in organ baths of capacity 10 ml, which are filled with Tyrode solution, and connected to extension-measuring strips (isometric contraction measurement). The preload is 1 g. The Tyrode solution is warmed to 37° C. in a water bath and bubbled through with compressed air. After an interval of 30 min. the experiment is begun. After recording the biological zero line, bradykinin at a final concentration of 4×10^-8 mol/l per organ bath is added and the […] is recorded. The organ bath is then rinsed for 3 min with Tyrode solution and, after a break of 20 min., bradykinin is added again. The maximum of the contraction is achieved (control). Rinse again, break. The bradykinin antagonist is then added (time of action 10 min). Bradykinin is then added again and the ensuing contraction is compared with that of the control. The experiment is recorded on a pen recorder. […]
______________________________________ […]

[2] = tested on: bradykinin contraction of the isolated rabbit jugular vein; test: in-vitro duration of action on the isolated rabbit jugular (bradykinin-induced contraction); format: cell-based, rabbit (white New Zealand); conditions: for inhibition at 10 µM: Oryctolagus cuniculus, 0.25 h, time 15 min, test substance (10^-5 M) present in bath, bradykinin 10^-7 M; for inhibition at 10 µM / Inhibition of the bradykinin contraction in %: mean, n=6; for Inhibition of the bradykinin contraction in %: after rinsing (test substance 10^-5 M no longer in bath); for inhibition after 4 h (in words): test substance 10^-5 M
Experimental: The compounds of Examples 1, X and Y were compared. Examples X and Y are described in EP-A 622 361.
Comparison of the in-vitro duration of action of heterocyclic bradykinin antagonists on the isolated rabbit jugular
Male rabbits (white New Zealand, breeder: Mollegaard, Denmark, 2.5-3.0 kg) are killed by injection of an overdose of Pentobarbital-Na (1 ml of Narcoren®+0.5 ml of heparin). The two jugular veins are exposed, cut spirally and pieces of about 1.5 cm length are suspended in buffered organ baths (Krebs-Henseleit buffer) at a pretension of 0.5 g.
After a rest period of 30 min, contractions are induced by addition of bradykinin (10^-7 M), which serve as the starting value. Test substances are then added at a concentration of 10^-5 M. The inhibitory values shown are mean values (n=6). […] The bradykinin contraction is then ended by rinsing with just buffer solution.
At each further time shown, stimulation was again carried out with bradykinin (in the absence of the test substance in the bath fluid) and at the end of the contraction the bath fluid was replaced by just buffer solution.

Structure (SMILES) | Ki (bradykinin B2 receptor) [nM] | IC50 (bradykinin B2 receptor) [nM] | inhibition at 10 µM [2] [%] | Inhibition of the bradykinin contraction in % ([2]; time 210 min) [%] | Inhibition of the bradykinin contraction in % ([2]; time 240 min) [%] | other results
Cc1ccc2cccc(OCc3c(Cl)ccc(N(C)C(=O)CNC(=O)/C=C/c4ccc(C(F)(F)F)cc4)c3Cl)c2n1 [Example 1, 8-[3-(N-(4-trans-Trifluoromethylcinnamoylglycyl)-N-methylamino)-2,6-dichlorobenzyloxy]-2-methylquinoline] | 1 | 9 | 98 | 95 | 92 | IC50 [1]: 44 nM; in-vitro duration of action (in words) ([2]; isolated rabbit jugular, compared with Examples Y and X): distinctly longer in-vitro duration of action; Inhibition of the bradykinin contraction in % ([2]; time 30 min, bradykinin): 99%; Inhibition of the bradykinin contraction in % ([2]; time 60 min): 99%; Inhibition of the bradykinin contraction in % ([2]; time 270 min): 87%; Inhibition of the bradykinin contraction in % ([2]; time 300 min): 78%; Inhibition of the bradykinin contraction in % ([2]; time 330 min): 71%; Inhibition of the bradykinin contraction in % ([2]; time 360 min (6 h)): 68%
Cc1ccc2c(C)ccc(OCc3c(Cl)ccc(N(C)C(=O)CNC(=O)/C=C/c4ccc(C(F)(F)F)cc4)c3Cl)c2n1 [Example 2] | 4 | 40 |  |  |  | IC50 [1]: 1500 nM
Cc1ccc2cccc(OCc3c(Cl)ccc(N(C)C(=O)CNC(=O)Cc4ccc(C(F)(F)F)cc4)c3Cl)c2n1 [Example 8] | 3.4 | 28 |  |  |  | 
Cc1ccc2cccc(OCc3c(Cl)ccc(N(C)C(=O)CNC(=O)OCc4ccc(OC(F)(F)F)cc4)c3Cl)c2n1 [Example 22] | 10 | 95 |  |  |  | 
Cc1ccc2cccc(OCc3c(Cl)ccc(N(C)C(=O)CNC(=S)Nc4cccc(C(F)(F)F)c4)c3Cl)c2n1 [Example 29, 8-[3-N-(3-Trifluoromethylphenylthioureidoacetyl-N-methylamino)-2,6-dichlorobenzyloxy]-2-methylquinoline] | 5.1 | 38 |  |  |  | 
Cc1ccc(/C=C/C(=O)NCC(=O)N(C)c2ccc(Cl)c(COc3cccc4ccc(C)nc34)c2Cl)cc1 [Example X] |  |  | 97 | 58 | 30 | inhibition after 4 h (in words) [2]: no longer show any inhibition; Inhibition of the bradykinin contraction in % ([2]; time 120 min): 95%; Inhibition of the bradykinin contraction in % ([2]; time 150 min): 87%; Inhibition of the bradykinin contraction in % ([2]; time 180 min): 74%
COc1cccc(/C=C/C(=O)NCC(=O)N(C)c2ccc(Cl)c(COc3cccc4ccc(C)nc34)c2Cl)c1 [Example Y] |  |  | 96 | 59 | 31 | inhibition after 4 h (in words) [2]: no longer show any inhibition; Inhibition of the bradykinin contraction in % ([2]; time 30 min, bradykinin): 97%; Inhibition of the bradykinin contraction in % ([2]; time 180 min): 84%; Inhibition of the bradykinin contraction in % ([2]; time 270 min): 3%
